Read-outs that look alike come from different tables or passages of the source.
Experiments:
TvG6PD::6PGL [1] = target: T1, TvG6PD::6PGL (Trichomonas vaginalis, UniProt A2DBT5); settings: cited from earlier work
GlTIM = tested on: GlTIM; design: method as in PMID 32882836; settings: cited from earlier work; for IC50: read-out: IC50 TIM enzyme from G. lamblia
G. lamblia [2] = tested on: G. lamblia; design: method as in PMID 32882836; settings: previous study; cited from earlier work
GlG6PD::6PGL [3] = target: T2, GlG6PD::6PGL (Giardia intestinalis, UniProt A8BWM5); test: Intrinsic fluorescence of GlG6PD::6PGL with compounds; design: species or system G. lamblia; settings: compound at IC50 concentration, 2 h, 37 °C; for maximum intrinsic fluorescence intensity of GlG6PD::6PGL: control 874 a.u.
Method: (§1) The effect of the compounds on the tertiary structure (3D) of the GlG6PD::6PGL and TvG6PD::6PGL proteins was evaluated by monitoring the changes in the intrinsic and extrinsic fluorescence using a Perkin-Elmer LS-55 spectrofluorometer (Perkin-Elmer, Wellesley, MA, USA). […] Following incubation, the proteins were excited at 280 nm, and we recorded the emission spectra from 310 to 500 nm with a scan speed of 150 nm/min using excitation and emission slits of 4 and 8 nm, respectively. The spectra of the blanks (buffer phosphate containing each of the compounds) were subtracted from all the obtained spectra that contained the protein, and the spectrum of the enzyme without the compound was used as control. The final spectrum for each compound was the average of five scans.

[4] = tested on: T. vaginalis trophozoites; test: Anti-T. vaginalis assay (trophozoite viability, trypan blue); assay type: cell-based; settings: for reduction of T. vaginalis trophozoite viability at 6 µM / reduction of T. vaginalis trophozoite viability at 100 μM / IC50: 24 h; for reduction of T. vaginalis trophozoite viability at 100 μM: relative to negative control; for selectivity index (SI), T. vaginalis: Caco-2 CC50 relative to T. vaginalis IC50; for IC50: Trichomonas vaginalis, trophozoites, 37 °C
Method: The isolate T. vaginalis, Donne ATCC 30236 was axenically grown in trypticase–yeast extract–maltose (TYM) medium (pH 6.0), supplemented with 10% sterile horse serum (previously inactivated at 56 °C for 30 min), and incubated at 37 °C under microaerobic conditions. The trophozoites were axenically maintained, and a trypan blue (0.4%) exclusion assay was performed to ensure that the minimum viability of 95% and logarithmic growth phase were achieved before proceeding to the antiparasitic assay.
Drug susceptibility assays were performed to analyze the trichomonacidal potential of O2N-BZM7 and O2N-BZM9 compounds against T. vaginalis, as previously described. The compounds were diluted in dimethylsulfoxide (DMSO) as a vehicle for solubilization. […] Trophozoites were adjusted to an initial density of 2.6 × 10^5 trophozoites/mL of TYM medium. Then, 1.5 mL tubes were seeded with […] of T. vaginalis trophozoites/tubes (2.6 × 10^5 trophozoites/mL), O2N-BZM7 and O2N-BZM9 were added, and tubes were incubated at 37 °C with 5% CO2 for 24 h. After incubation, trophozoites were counted with trypan blue (0.4%) (1:1, v/v) on a Neubauer chamber to determine the trophozoites’ motility, morphology, and viability. Three controls were used in each assay: a negative control containing only trophozoites, a 0.06% DMSO control, and a positive control containing MTZ at 100 μM (Sigma-Aldrich, St. Louis, MO, USA). The IC50 was calculated using the GraphPad Prism 8.0 software Inc. version 8.0.2 (263) (San Diego, CA, USA).

GlG6PD::6PGL [5] = target: T2, GlG6PD::6PGL; test: GlG6PD::6PGL enzyme inactivation assay; assay type: biochemical, G. lamblia; settings: for Inhibition (%) at 400 µM of GlG6PD::6PGL: 400 µM compound, 0.2 mg/mL enzyme, 37 °C, 2 h, relative to enzyme without inhibitor; for inhibition at 400 µM: read-out: Inhibition (%) at 400 µM of GlG6PD::6PGL; for kinact/KI: read-out: second-order inactivation rate constant k2, GlG6PD::6PGL
Method: (§2) The G6PD domain activity of the recombinant proteins was spectrophotometrically measured at 25 °C by monitoring the reduction in NADP^+ at 340 nm. The assay was performed with 1 mL of standard reaction mixture containing 0.1 M Tris-HCl, 0.01 M MgCl2, 1 mM NADP^+, and 1 mM glucose-6-phosphate (G6P) at pH 8.3. The reaction was initiated with the addition of 1 µg/mL fused GlG6PD::6PGL or TvG6PD::6PGL enzymes.
(§3) Inactivation assays were performed with the compounds against GlG6PD::6PGL and TvG6PD::6PGL. Thus, all the compounds were activate immediately before the experiments as previously reported and diluted using dimethyl sulfoxide (DMSO) as a solvent. For the assay, 0.2 mg/mL of the enzyme was incubated with the compounds at a concentration of 400 µM at 37 °C for 2 h. Following incubation, the activity was measured with a standard reaction mixture. Only the compounds that reduced the activity of the enzyme by more than 50% were used in the subsequent experiments.
(§4) Then, aliquots from these incubations were withdrawn, and the residual activity was determined under standard conditions. The results are reported as the percentage of residual activity (using the activity of each enzyme incubated without any compound as 100% activity) versus the compound’s concentration.
(§5) The second-order rate constants of inactivation for each one of the compounds were calculated by obtaining the pseudo-first-order rate constant (k1) values. Pseudo-first-order inactivation rate constants (k1) were obtained at four or five fixed concentrations for each of the compounds. At the indicated times, aliquots were withdrawn to determine residual activity. Then, residual activity data were fitted using the monoexponential decay equation, as previously reported. The previously obtained k1 values were replotted against the concentrations of each compound, and the slope created by these plots corresponds to the second-order inactivation constant k2 (M^−1·s^−1).

GlG6PD::6PGL [6] = target: T2, GlG6PD::6PGL; test: Circular dichroism of GlG6PD::6PGL with compounds; design: species or system G. lamblia; settings: compound at IC50 concentration, 2 h, 37 °C, protein 0.5 mg/mL
Method: One control containing only enzyme was used in each assay. Then, the proteins were loaded in a quartz cell with a 0.1 cm path length, and spectral scans were recorded at 25 °C in ultraviolet circular dichroism (UV-CD) ranging from 200 to 260 nm. The spectra of the blanks (buffer P solution containing each of the compounds) were subtracted from all the obtained spectra that contained the protein. All the CD data were reported as molar ellipticity. The experiments were performed in triplicate.

G. lamblia [7] = test: In vitro antigiardial activity; assay type: cell-based; settings: for selectivity index (SI), G. lamblia: Caco-2 CC50 relative to G. lamblia IC50
TvG6PD::6PGL [8] = target: T1, TvG6PD::6PGL; test: TvG6PD::6PGL enzyme inactivation assay; assay type: biochemical, T. vaginalis; settings: for inhibition at 400 µM: read-out: Inhibition (%) at 400 µM of TvG6PD::6PGL, 400 µM compound, 0.2 mg/mL enzyme, 37 °C, 2 h, relative to enzyme without inhibitor; for kinact/KI: read-out: second-order inactivation rate constant k2, TvG6PD::6PGL, slope of k1 versus compound concentration
Method: as §2, §3, §4, §5

TvG6PD::6PGL [9] = target: T1, TvG6PD::6PGL; test: Intrinsic fluorescence of TvG6PD::6PGL with compounds; design: species or system T. vaginalis; settings: compound at IC50 concentration, 2 h, 37 °C; native protein 673 a.u.
Method: as §1

Caco-2 cells = settings: read-out: Caco-2 CC50, metronidazole; cited from earlier work

T2 sequence (A8BWM5 entry or part of it): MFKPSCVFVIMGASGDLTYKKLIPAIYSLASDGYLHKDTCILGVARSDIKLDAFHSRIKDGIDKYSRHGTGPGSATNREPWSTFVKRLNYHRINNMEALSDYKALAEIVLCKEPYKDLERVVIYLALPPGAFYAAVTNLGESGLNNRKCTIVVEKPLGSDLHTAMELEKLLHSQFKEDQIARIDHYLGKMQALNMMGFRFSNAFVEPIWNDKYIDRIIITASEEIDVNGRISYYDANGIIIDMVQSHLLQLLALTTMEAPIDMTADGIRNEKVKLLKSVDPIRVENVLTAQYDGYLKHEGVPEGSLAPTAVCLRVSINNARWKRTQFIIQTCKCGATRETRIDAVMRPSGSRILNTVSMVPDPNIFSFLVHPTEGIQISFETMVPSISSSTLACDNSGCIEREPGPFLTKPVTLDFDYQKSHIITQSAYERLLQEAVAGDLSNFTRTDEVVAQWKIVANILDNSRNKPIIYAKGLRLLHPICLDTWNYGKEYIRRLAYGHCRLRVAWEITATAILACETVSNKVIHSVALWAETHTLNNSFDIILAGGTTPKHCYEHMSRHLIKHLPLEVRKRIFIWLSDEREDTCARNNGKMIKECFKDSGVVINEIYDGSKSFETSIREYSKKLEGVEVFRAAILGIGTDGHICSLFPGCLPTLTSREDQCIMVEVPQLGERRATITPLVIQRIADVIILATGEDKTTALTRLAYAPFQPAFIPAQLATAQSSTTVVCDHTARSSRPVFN
T1 sequence (A2DBT5 entry or part of it): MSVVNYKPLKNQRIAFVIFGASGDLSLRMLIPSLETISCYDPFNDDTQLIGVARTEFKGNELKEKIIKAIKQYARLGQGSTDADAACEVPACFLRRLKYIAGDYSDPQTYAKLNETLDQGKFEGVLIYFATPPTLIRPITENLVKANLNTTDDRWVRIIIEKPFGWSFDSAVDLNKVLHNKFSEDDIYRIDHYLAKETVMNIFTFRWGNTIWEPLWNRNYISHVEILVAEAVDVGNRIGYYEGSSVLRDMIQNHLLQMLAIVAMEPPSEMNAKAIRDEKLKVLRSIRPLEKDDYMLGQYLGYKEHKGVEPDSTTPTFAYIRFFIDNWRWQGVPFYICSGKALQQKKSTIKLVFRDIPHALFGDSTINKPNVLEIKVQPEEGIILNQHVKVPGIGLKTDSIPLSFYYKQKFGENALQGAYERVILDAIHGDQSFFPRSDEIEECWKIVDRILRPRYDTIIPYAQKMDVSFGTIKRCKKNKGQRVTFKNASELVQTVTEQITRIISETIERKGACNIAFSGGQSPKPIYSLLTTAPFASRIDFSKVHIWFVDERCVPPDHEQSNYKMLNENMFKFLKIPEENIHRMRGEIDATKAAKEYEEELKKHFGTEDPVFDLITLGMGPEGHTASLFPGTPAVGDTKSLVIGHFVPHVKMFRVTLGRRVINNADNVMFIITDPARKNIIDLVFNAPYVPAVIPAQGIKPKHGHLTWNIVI

| Structure (SMILES) | IC50 (GlTIM) [µM] | selectivity index (SI), T. vaginalis [4] | IC50 [4] [µM] | Inhibition (%) at 400 µM of GlG6PD::6PGL (GlG6PD::6PGL [5]) | inhibition at 400 µM (GlG6PD::6PGL [5]) [%] | kinact/KI (GlG6PD::6PGL [5]) [M⁻¹ s⁻¹] | selectivity index (SI), G. lamblia (G. lamblia [7]) | inhibition at 400 µM (TvG6PD::6PGL [8]) [%] | also measured |
| --- | --- | --- | --- | --- | --- | --- | --- | --- | --- |
| O=C(Nc1ccc(Cl)cc1)Nc1ncc([N+](=O)[O-])s1 [CNZ-3] |  |  |  |  |  |  |  |  | k2 for TvG6PD::6PGL protein, in-house library compounds (TvG6PD::6PGL [1]): 0.66 M⁻¹ s⁻¹ |
| Cc1c(OCC(F)(F)F)ccnc1C[S+]([O-])c1nc2ccc([N+](=O)[O-])cc2[nH]1 (stereo not shown) [Compound O2N-BZM9, 2-{[3-methyl-4-(2,2,2-trifluoroethoxy)pyridin-2-yl]methanesulfinyl}-6-nitro-1H-benzimidazole] | 20 | 160 | 4 | complete activity of the GlG6PD::6PGL enzyme was eradicated | 100 ± 5 | 6.1 | 39 | > 70 | k2 for inactivation of GlTIM enzyme (GlTIM): 2.8 M⁻¹ s⁻¹; IC50 (G. lamblia [2]): 17 µM; reduction of intrinsic fluorescence of GlG6PD::6PGL compared to control (GlG6PD::6PGL [3]): 62%; maximum intrinsic fluorescence intensity of GlG6PD::6PGL (GlG6PD::6PGL [3]): 329 a.u.; reduction of T. vaginalis trophozoite viability at 6 µM [4]: 52%; reduction of T. vaginalis trophozoite viability at 100 μM [4]: 100%; IC50 (GlG6PD::6PGL [5]): 15 µM; change of secondary structure (CD spectra) of GlG6PD::6PGL (GlG6PD::6PGL [6]): did not induce alterations of the secondary structure; kinact/KI (TvG6PD::6PGL [8]): 1.62 M⁻¹ s⁻¹; maximal intrinsic fluorescence intensity of TvG6PD::6PGL (TvG6PD::6PGL [9]): 102 a.u. |
| COc1c(C)cnc(C[S+]([O-])c2nc3ccccc3[nH]2)c1C (stereo not shown) [H-BZM2, 2-[(4-methoxy-3,5-dimethylpyridin-2-yl)methanesulfinyl]-1H-benzimidazole] | 37 |  |  | complete activity of the GlG6PD::6PGL enzyme was eradicated | 100 ± 5 | 3.3 |  | 47 ± 5 | IC50 (GlG6PD::6PGL [5]): 24 µM |
| [O-][S+](Cc1ccccn1)c1nc2ccccc2[nH]1 (stereo not shown) [H-BZM1, 2-[(pyridin-2-yl)methanesulfinyl]-1H-benzimidazole] |  |  |  |  | 62 ± 5 |  |  | 7 ± 5 |  |
| Cc1ncc([N+](=O)[O-])n1CCO [Metronidazole, reference compound] |  | 1.6 | 12 |  |  |  | 3.9 |  | CC50 (Caco-2 cells): 19 µM; IC50 (G. lamblia [7]; Giardia duodenalis, no reference given, read-out: G. lamblia IC50, metronidazole positive control): 4.8 µM |
| Cc1c(OCC(F)(F)F)ccnc1C[S+]([O-])c1nc2ccc(N)cc2[nH]1 (stereo not shown) [Compound H2N-BZM6, 2-{[3-methyl-4-(2,2,2-trifluoroethoxy)pyridin-2-yl]methanesulfinyl}-1H-benzimidazol-6-amine] |  |  |  | complete activity of the GlG6PD::6PGL enzyme was eradicated | 100 ± 5 |  |  | 12 ± 5 |  |
| O=C(COc1ccc(/C=C2\SC(=O)NC2=O)cc1)NC1CCN(Cc2ccccc2)CC1 [MCC-7] |  |  |  |  |  |  |  |  | k2 for TvG6PD::6PGL protein, in-house library compounds (TvG6PD::6PGL [1]): 0.26 M⁻¹ s⁻¹ |
| O=[N+]([O-])c1ccc2nc([S+]([O-])Cc3ccccn3)[nH]c2c1 (stereo not shown) [Compound O2N-BZM7, 6-nitro-2-[(pyridin-2-yl)methanesulfinyl]-1H-benzimidazole] | 12 | 106 | 6 | complete activity of the GlG6PD::6PGL enzyme was eradicated | 100 ± 5 | 1.9 | 45 |  | k2 for inactivation of GlTIM enzyme (GlTIM): 3.2 M⁻¹ s⁻¹; IC50 (G. lamblia [2]): 14 µM; reduction of intrinsic fluorescence of GlG6PD::6PGL compared to control (GlG6PD::6PGL [3]): 62%; maximum intrinsic fluorescence intensity of GlG6PD::6PGL (GlG6PD::6PGL [3]): 329 a.u.; reduction of T. vaginalis trophozoite viability at 6 µM [4]: 52%; reduction of T. vaginalis trophozoite viability at 100 μM [4]: 100%; change of secondary structure (CD spectra) of GlG6PD::6PGL (GlG6PD::6PGL [6]): did not induce alterations of the secondary structure; kinact/KI (TvG6PD::6PGL [8]): 0.85 M⁻¹ s⁻¹; maximal intrinsic fluorescence intensity of TvG6PD::6PGL (TvG6PD::6PGL [9]): 415 a.u. |

— PMC9781444, “Pyridyl Methylsulfinyl Benzimidazole Derivatives as Promising Agents against Giardia lamblia and Trichomonas vaginalis” (Molecules, 2022)
